Values joined by “and” are separate entries in the source; they are usually repeats but may differ in a detail not shown here. Equal values may be shown once.
Experiment: Residual 14C-gentian violet in tissues of cockerels after repeated oral administration (Example 26)
Settings: for 14C dpm/Organ / 14C dpm/gram / ug/gram (ppm) in organ: individual bird; for Mean tissue residue: oral; for Mean tissue residue, mean of two values without the sport: 2.5 mg/kg

CN(C)c1ccc(C(=C2C=CC(=[N+](C)C)C=C2)c2ccc(N(C)C)cc2)cc1 [^14 C-gentian violet]
Residue 72 hrs. post-dose (breast muscle): 0.012 ppm
Residue 72 hrs. post-dose (gizzard muscle): 0.002 ppm
Residue 72 hrs. post-dose (heart muscle): 0.007 ppm
14C dpm/Organ (kidneys, 1X dose, 4 hours): 2,863 dpm/Organ and 4,271 dpm/Organ and 2,272 dpm/Organ
14C dpm/gram (kidneys, 1X dose, 4 hours): 1,184 dpm/gram and 1,634 dpm/gram and 1,269 dpm/gram
ug/gram (ppm) in organ (kidneys, 1X dose, 4 hours, 240 min): 0.089 ppm and 0.123 ppm and 0.095 ppm
14C dpm/Organ (kidneys, 1X dose, 12 hours): 1,746 dpm/Organ and 1,696 dpm/Organ and 3,452 dpm/Organ
14C dpm/gram (kidneys, 1X dose, 12 hours): 820 dpm/gram and 764 dpm/gram and 1,561 dpm/gram
ug/gram (ppm) in organ (kidneys, 1X dose, 12 hours, 720 min): 0.062 ppm and 0.057 ppm and 0.117 ppm
14C dpm/Organ (kidneys, 1X dose, 24 hours): 2,705 dpm/Organ and 1,481 dpm/Organ and 1,644 dpm/Organ
14C dpm/gram (kidneys, 1X dose, 24 hours): 1,463 dpm/gram and 639 dpm/gram and 561 dpm/gram
ug/gram (ppm) in organ (kidneys, 1X dose, 24 hours, 1440 min): 0.110 ppm and 0.048 ppm and 0.042 ppm
14C dpm/Organ (kidneys, 1X dose, 48 hours): 1,186 dpm/Organ and 863 dpm/Organ
14C dpm/gram (kidneys, 1X dose, 48 hours): 511 dpm/gram and 527 dpm/gram
ug/gram (ppm) in organ (kidneys, 1X dose, 48 hours, 2880 min): 0.038 ppm and 0.040 ppm
14C dpm/Organ (kidneys, 1X dose, 72 hours): 972 dpm/Organ and 759 dpm/Organ
14C dpm/gram (kidneys, 1X dose, 72 hours): 333 dpm/gram and 289 dpm/gram
ug/gram (ppm) in organ (kidneys, 1X dose, 72 hours, 4320 min): 0.025 ppm and 0.022 ppm
14C dpm/Organ (kidneys, 5X dose, 4 hours): 11,116 dpm/Organ and 9,227 dpm/Organ and 8.867 dpm/Organ and 12,505 dpm/Organ
14C dpm/gram (kidneys, 5X dose, 4 hours): 9,183 dpm/gram and 4,798 dpm/gram and 4,729 dpm/gram and 6,658 dpm/gram
ug/gram (ppm) in organ (kidneys, 5X dose, 4 hours, 240 min): 0.691 ppm and 0.361 ppm and 0.356 ppm and 0.501 ppm
14C dpm/Organ (kidneys, 5X dose, 12 hours): 11,939 dpm/Organ and 6,796 dpm/Organ and 6,537 dpm/Organ and 5,712 dpm/Organ and 7,815 dpm/Organ
14C dpm/gram (kidneys, 5X dose, 12 hours): 5,250 dpm/gram and 3,258 dpm/gram and 3,060 dpm/gram and 2,334 dpm/gram and 3,855 dpm/gram
ug/gram (ppm) in organ (kidneys, 5X dose, 12 hours, 720 min): 0.395 ppm and 0.245 ppm and 0.230 ppm and 0.176 ppm and 0.290 ppm
14C dpm/Organ (kidneys, 5X dose, 24 hours): 6,185 dpm/Organ and 6,443 dpm/Organ and 7,315 dpm/Organ and 3,623 dpm/Organ
14C dpm/gram (kidneys, 5X dose, 24 hours): 3,002 dpm/gram and 2,961 dpm/gram and 3,751 dpm/gram and 1,463 dpm/gram
ug/gram (ppm) in organ (kidneys, 5X dose, 24 hours, 1440 min): 0.226 ppm and 0.223 ppm and 0.282 ppm and 0.110 ppm
14C dpm/Organ (kidneys, 5X dose, 48 hours): 2,197 dpm/Organ and 3,750 dpm/Organ and 2,882 dpm/Organ
14C dpm/gram (kidneys, 5X dose, 48 hours): 982 dpm/gram and 1,647 dpm/gram and 1,508 dpm/gram
ug/gram (ppm) in organ (kidneys, 5X dose, 48 hours, 2880 min): 0.074 ppm and 0.124 ppm and 0.113 ppm
14C dpm/Organ (kidneys, 5X dose, 72 hours): 4,998 dpm/Organ and 1,843 dpm/Organ and 1,792 dpm/Organ
14C dpm/gram (kidneys, 5X dose, 72 hours): 4,044 dpm/gram and 844 dpm/gram and 1,042 dpm/gram
ug/gram (ppm) in organ (kidneys, 5X dose, 72 hours, 4320 min): 0.304 ppm and 0.067 ppm and 0.078 ppm
14C dpm/Organ (liver, 1X dose, 4 hours): 21,804 dpm/Organ and 36,280 dpm/Organ and 16,323 dpm/Organ
14C dpm/gram (liver, 1X dose, 4 hours): 3,084 dpm/gram and 5,753 dpm/gram and 2,493 dpm/gram
ug/gram (ppm) in organ (liver, 1X dose, 4 hours, 240 min): 0.232 ppm and 0.433 ppm and 0.188 ppm
14C dpm/Organ (liver, 1X dose, 12 hours): 5,477 dpm/Organ and 5,889 dpm/Organ and 19,188 dpm/Organ
14C dpm/gram (liver, 1X dose, 12 hours): 996 dpm/gram and 927 dpm/gram and 2,857 dpm/gram
ug/gram (ppm) in organ (liver, 1X dose, 12 hours, 720 min): 0.075 ppm and 0.070 ppm and 0.215 ppm
14C dpm/Organ (liver, 1X dose, 24 hours): 14,586 dpm/Organ and 5,165 dpm/Organ and 7,248 dpm/Organ
14C dpm/gram (liver, 1X dose, 24 hours): 2,890 dpm/gram and 830 dpm/gram and 851 dpm/gram
ug/gram (ppm) in organ (liver, 1X dose, 24 hours, 1440 min): 0.217 ppm and 0.062 ppm and 0.064 ppm
14C dpm/Organ (liver, 1X dose, 48 hours): 8,396 dpm/Organ and 6,073 dpm/Organ
14C dpm/gram (liver, 1X dose, 48 hours): 1,419 dpm/gram and 1,292 dpm/gram
ug/gram (ppm) in organ (liver, 1X dose, 48 hours, 2880 min): 0.107 ppm and 0.097 ppm
14C dpm/Organ (liver, 1X dose, 72 hours): 7,261 dpm/Organ and 3,744 dpm/Organ
14C dpm/gram (liver, 1X dose, 72 hours): 546 dpm/gram and 361 dpm/gram
ug/gram (ppm) in organ (liver, 1X dose, 72 hours, 4320 min): 0.041 ppm and 0.027 ppm
14C dpm/Organ (liver, 5X dose, 4 hours): 44,618 dpm/Organ and 50,607 dpm/Organ and 42,844 dpm/Organ and 46,652 dpm/Organ
14C dpm/gram (liver, 5X dose, 4 hours): 13,878 dpm/gram and 9,859 dpm/gram and 8,038 dpm/gram and 9,651 dpm/gram
ug/gram (ppm) in organ (liver, 5X dose, 4 hours, 240 min): 1.044 ppm and 0.742 ppm and 0.605 ppm and 0.726 ppm
14C dpm/Organ (liver, 5X dose, 12 hours): 66,438 dpm/Organ and 24,948 dpm/Organ and 17,753 dpm/Organ and 26,299 dpm/Organ and 68,033 dpm/Organ
14C dpm/gram (liver, 5X dose, 12 hours): 11,801 dpm/gram and 4,135 dpm/gram and 3,201 dpm/gram and 3,772 dpm/gram and 10,291 dpm/gram
ug/gram (ppm) in organ (liver, 5X dose, 12 hours, 720 min): 0.888 ppm and 0.311 ppm and 0.241 ppm and 0.284 ppm and 0.774 ppm
14C dpm/Organ (liver, 5X dose, 24 hours): 60,300 dpm/Organ and 67,384 dpm/Organ and 68,033 dpm/Organ and 20,674 dpm/Organ
14C dpm/gram (liver, 5X dose, 24 hours): 9.588 dpm/gram and 10,942 dpm/gram and 12,714 dpm/gram and 2,845 dpm/gram
ug/gram (ppm) in organ (liver, 5X dose, 24 hours, 1440 min): 0.721 ppm and 0.823 ppm and 0.957 ppm and 0.215 ppm
14C dpm/Organ (liver, 5X dose, 48 hours): 15,334 dpm/Organ and 27,176 dpm/Organ and 13,617 dpm/Organ
14C dpm/gram (liver, 5X dose, 48 hours): 2,649 dpm/gram and 5,220 dpm/gram and 3,102 dpm/gram
ug/gram (ppm) in organ (liver, 5X dose, 48 hours, 2880 min): 0.199 ppm and 0.393 ppm and 0.233 ppm
14C dpm/Organ (liver, 5X dose, 72 hours): 45,587 dpm/Organ and 10,991 dpm/Organ and 13,245 dpm/Organ
14C dpm/gram (liver, 5X dose, 72 hours): 21,927 dpm/gram and 2,447 dpm/gram and 2,991 dpm/gram
ug/gram (ppm) in organ (liver, 5X dose, 72 hours, 4320 min): 1.650 ppm and 0.184 ppm and 0.225 ppm
Residue 72 hrs. post-dose (kidney): 0.024 ppm
Elimination Rate Constant (Ke) (kidneys, 1X dose): -0.0209 h⁻¹
Mean tissue residue (kidneys, 1X dose (0.5 mg/kg), 4 hrs. post-dose): 0.102 ppm
Mean tissue residue (kidneys, 1X dose (0.5 mg/kg), 12 hrs. post-dose): 0.079 ppm
Mean tissue residue (kidneys, 1X dose (0.5 mg/kg), 24 hrs. post-dose): 0.067 ppm
Mean tissue residue (kidneys, 1X dose (0.5 mg/kg), 48 hrs. post-dose): 0.039 ppm
Mean tissue residue (kidneys, 1X dose (0.5 mg/kg), 72 hrs. post-dose): 0.024 ppm
Elimination Rate Constant (Ke) (kidneys, 5X dose): -0.0262 h⁻¹
Half-Life (t1/2) (kidneys, 5X dose): 26.7 h
Mean tissue residue (kidneys, 5X dose (2.5 mg/kg), 4 hrs. post-dose): 0.477 ppm
Mean tissue residue (kidneys, 5X dose (2.5 mg/kg), 12 hrs. post-dose): 0.267 ppm
Mean tissue residue (kidneys, 5X dose (2.5 mg/kg), 24 hrs. post-dose): 0.210 ppm
Mean tissue residue (kidneys, 5X dose (2.5 mg/kg), 48 hrs. post-dose): 0.104 ppm
Mean tissue residue (kidneys, 5X dose (2.5 mg/kg), 72 hrs. post-dose, includes a sport, high value among three): 0.150 ppm
Mean tissue residue, mean of two values without the sport (kidneys, 5X dose, 72 hrs. post-dose): 0.073 ppm
Residue 72 hrs. post-dose (liver): 0.034 ppm
Mean tissue residue (liver, 1X dose (0.5 mg/kg), 4 hrs. post-dose): 0.284 ppm
Mean tissue residue (liver, 1X dose (0.5 mg/kg), 12 hrs. post-dose): 0.120 ppm
Mean tissue residue (liver, 1X dose (0.5 mg/kg), 24 hrs. post-dose): 0.114 ppm
Mean tissue residue (liver, 1X dose (0.5 mg/kg), 48 hrs. post-dose): 0.102 ppm
Mean tissue residue (liver, 1X dose (0.5 mg/kg), 72 hrs. post-dose): 0.034 ppm
Mean tissue residue (liver, 5X dose (2.5 mg/kg), 4 hrs. post-dose): 0.779 ppm
Mean tissue residue (liver, 5X dose (2.5 mg/kg), 12 hrs. post-dose): 0.500 ppm
Mean tissue residue (liver, 5X dose (2.5 mg/kg), 24 hrs. post-dose): 0.679 ppm
Mean tissue residue (liver, 5X dose (2.5 mg/kg), 48 hrs. post-dose): 0.275 ppm
Mean tissue residue (liver, 5X dose (2.5 mg/kg), 72 hrs. post-dose, includes a sport, high value among three): 0.686 ppm
Mean tissue residue, mean of two values without the sport (liver, 5X dose, 72 hrs. post-dose): 0.205 ppm
Elimination Rate Constant (Ke) (livers, 1X dose): -0.0247 h⁻¹
Half-Life (t1/2) (livers, 1X dose): 28.0 h
Elimination Rate Constant (Ke) (livers, 5X dose): -0.0193 h⁻¹
Half-Life (t1/2) (livers, 5X dose): 35.9 h
Residue 72 hrs. post-dose (skin/fat): 0.016 ppm
Residue 72 hrs. post-dose (thigh muscle): 0.012 ppm

Source: patent US4033721A, “Analysis of gentian violet residue in tissue” (priority 1976, dated 1977)
